In article PMC9394284, “Discovery of Novel Dual Adenosine A2A and A1 Receptor Antagonists with 1H-Pyrazolo[3,4-d]pyrimidin-6-amine Core Scaffold as Anti-Parkinson’s Disease Agents” (Pharmaceuticals, 2022):
Where two headings read alike, the source gives them in different places.

Tests used:
[1] = pharmacokinetics and brain/plasma ratio in mouse brain; assay type: in vivo, Crl:CD-1 mice; conditions: male; for AUC(0-t) / Cmax / Tmax / half-life: mouse brain
Procedure: Male Crl:CD-1 mice of 9~10 weeks of age were purchased from Charles River Laboratories, USA and maintained at standard food and water ad libitum in temperature-controlled room with 12 h on-off light cycle before the experiment. All procedures described were reviewed and approved by the Institutional Animal Care and Use Committee (IACUC) at Frontage Laboratories Inc. For PO dosing, mice were given 11o dissolved in DMSO: PEG400 (1:3, v:v) via gavage. For IV dosing, 11o solubilized in DMSO: PEG400: saline (1:3:6, v:v) were injected into tail veins at dose volume of 1 mL/kg. For IN dosing, 11o solubilized in DMSO and 25 μL of the appropriate dosing solution was placed near the nares to allow animal to inhale the dose. Three mice were sampled from each group for each blood and brain collection time point. Time points are 0.5, 1, 2, 4, 8, 24 h for PO and IN dosing and 0.083, 1, 2, 4, 8 and 24 h for IV dosing. Mice were euthanized by terminal retro-orbital blood collection under isoflurane anesthesia, followed by opening of the thoracic cavity per facility SOPs. A target volume of 1 mL was collected into tubes containing K3EDTA anti-coagulant, inverted several times and held on wet ice until centrifuged under refrigeration (set at 5 °C for 10 min at 2000× g). Resulting plasma were stored in a freezer set to maintain −70 °C until analyzed for 11o concentration. Brain was removed from each animal and weighed following termination, snap frozen and stored until later use. Plasma and brain PK analysis was conducted using WinNolin Version 6.2.1 (Pharsight, Mountain View, CA, USA), operating as a validated software system. Noncompartmental analysis was conducted using the extravascular administration model for oral dosing and the IV bolus model for IV dosing. The peak plasma and brain concentration, time to achieve peak plasma concentration, half-life, and area under the plasma concentration-time curve (Cmax, Tmax, T1/2 and AUC) were calculated from mean plasma concentrations for each sampling time/dose group for 11o. Nominal blood collection times were used for calculation of PK parameters. Dose proportionality was assessed, and bioavailability was calculated for PO dosing.

[2] = target: T1, hA1 receptor (Homo sapiens, UniProt P30542); test: radioligand binding to human A1 receptors, CHO-K1 membranes, [3H]DPCPX
T1 sequence (P30542 1-326): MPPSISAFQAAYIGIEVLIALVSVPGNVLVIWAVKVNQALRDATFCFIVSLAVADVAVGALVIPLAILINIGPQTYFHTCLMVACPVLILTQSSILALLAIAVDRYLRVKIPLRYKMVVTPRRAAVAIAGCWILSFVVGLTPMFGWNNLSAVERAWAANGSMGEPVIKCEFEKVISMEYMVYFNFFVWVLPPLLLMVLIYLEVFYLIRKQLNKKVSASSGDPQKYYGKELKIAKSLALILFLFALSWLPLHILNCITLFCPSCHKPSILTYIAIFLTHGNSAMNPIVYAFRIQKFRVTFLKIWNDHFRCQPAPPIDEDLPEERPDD
Procedure: The radioligand-binding assays for adenosine receptors were performed at Eurofins Discovery Services (Panlabs, Taiwan). Briefly, stock solutions of the compounds were prepared in DMSO and further diluted with the incubation buffer to the desired concentration. Final DMSO concentrations in the assay were 1.0%. For adenosine A1 screening, a 10 μg aliquots of membrane preparations from human recombinant CHO-K1 cells stably expressing A1 receptors (CHO-K1-hA1AR clone3, EPDST, R200510) were incubated with 1 nM [^3H]DPCPX in incubation buffer (20 mM HEPES, pH 7.4, 10 mM MgCl2, 100 mM NaCl 1.40 nM) for 90 min at 25 °C. Nonspecific binding was estimated in the presence of 100 μM R(-)-PIA. Membranes were filtered and washed 3 times and the filters were counted to determine specifically bound [^3H]DPCPX. Chemical compounds were screened at 10 μM. For A2A screening, membrane preparations from human recombinant HEK-293 cells stably expressing A2A receptors (PerkinElmer, RBHA2AM) were incubated with 0.05 μM [^3H]CGS-21680 in incubation buffer (50 mM Tris-HCl, pH 7.4, 10 mM MgCl2, 1 mM EDTA, 2 U/mL Adenosine Deaminase) for 90 min at 25 °C. Nonspecific binding was estimated in the presence of 50.0 μM NECA. Membranes were filtered and washed 3 times and the filters were counted to determine [^3H]CGS-21680 specifically bound. For A2B screening, membrane preparations from human recombinant HEK-293 cells stably expressing A2B receptors (PerkinElmer, ES-013-M) were incubated with 1.6 nM [^3H]MRS1754 in incubation buffer (50 mM Tris-HCl, pH 6.5, 5 mM MgCl2, 1 mM EDTA, 0.01 % Bacitracin) for 90 min at 25 °C. Nonspecific binding was estimated in the presence of 100 μM NECA. Membranes were filtered and washed 3 times and the filters were counted to determine [^3H]MRS1754 specifically bound. For A3 screening, membrane preparations from human recombinant CHO-K1 cells stably expressing A3 receptors (PerkinElmer, ES-012-M) were incubated with 0.5 nM [^125I]AB-MECA in incubation buffer (25 mM HEPES, pH 7.4, 5 mM MgCl2, 1 mM CaCl2, 0.1 % BSA) for 60 min at 25 °C. Nonspecific binding was estimated in the presence of 1.0 μM IB-MECA.
IC50 values were determined by a nonlinear, least-squares regression analysis using MathIQ^TM (ID Business Solutions Ltd., Guildford, UK). Where inhibition constants (Ki) were presented, the Ki values were calculated using Cheng and Prusoff equation [18] using the observed IC50 of the compound, the concentration of radioligand employed in the assay, and the historical values for the KD of the ligand (obtained experimentally at Eurofins Panlabs, Inc.). The Hill coefficient (nH), which defines the slope of the competitive binding curve, was calculated using MathIQ^TM.

[3] = Crl:CD-1, inhaled or intranasal, 1 mg/kg IN
[4] = Crl:CD-1, inhaled or intranasal, 3 mg/kg IN
[5] = Crl:CD-1, inhaled or intranasal, 10 mg/kg IN
[6] = average of duplicate experiments

## Cc1cc(Cn2ncc3c(-c4cccc(C#N)c4F)nc(N)nc32)ccc1N [11o, 3-(6-Amino-1-(4-amino-3-methylbenzyl)-1H-pyrazolo[3,4-d]pyrimidin-4-yl)-2-fluorobenzonitrile]
[1]; Crl:CD-1, brain/plasma, other: intranasal (IN), placed near the nares, mouse, IN 1, 3 and 10 mg/kg, read-out: B/P ratio, IN dosing groups
  Kp: 0.0698 to 0.183
[1]; Crl:CD-1, brain/plasma, mouse, PO 1, 3 and 10 mg/kg, read-out: B/P ratio, PO dosing groups
  Kp: 0.0242 to 0.167
[1]; [3]
  AUC(0-t): 5.23 ng·h/mL
  Cmax: 9.63 ng/mL
  Tmax: 0.5 h
[1]; [4]
  AUC(0-t): 14.2 ng·h/mL
  Cmax: 15.9 ng/mL
  Tmax: 0.5 h
[1]; [5]
  AUC(0-t): 81.3 ng·h/mL
  Cmax: 38.2 ng/mL
  Tmax: 0.5 h
  half-life: 3.74 h
[1]; Crl:CD-1, mouse, other: IN (intranasal, placed near the nares to inhale), 10 mg/kg IN, Brain AUClast/Plasma AUClast, read-out: B/P Ratio
  Kp: 0.183
[1]; Crl:CD-1, mouse, other: IN dosing, solution placed near the nares to inhale, 1 mg/kg IN, Brain AUClast/Plasma AUClast, read-out: B/P Ratio
  Kp: 0.0698
[1]; Crl:CD-1, mouse, other: IN dosing, solution placed near the nares to inhale, 3 mg/kg IN, Brain AUClast/Plasma AUClast, read-out: B/P Ratio
  Kp: 0.0776
[1]; Crl:CD-1, mouse, 1 mg/kg IV, Brain AUClast/Plasma AUClast, read-out: B/P Ratio
  Kp: 0.741
[1]; Crl:CD-1, mouse, 1 mg/kg PO, Brain AUClast/Plasma AUClast, read-out: B/P Ratio
  Kp: 0.0242
[1]; Crl:CD-1, mouse, 3 mg/kg PO, Brain AUClast/Plasma AUClast, read-out: B/P Ratio
  Kp: 0.0977
[1]; Crl:CD-1, mouse, 10 mg/kg PO, Brain AUClast/Plasma AUClast, read-out: B/P Ratio
  Kp: 0.167
[1]; Crl:CD-1, 1 mg/kg IV
  AUC(0-t): 246 ng·h/mL
  Cmax: 410 ng/mL
  Tmax: 0.083 h
[1]; Crl:CD-1, 1 mg/kg PO
  AUC(0-t): 4.26 ng·h/mL
  Cmax: 5.58 ng/mL
  Tmax: 2 h
[1]; Crl:CD-1, 3 mg/kg PO
  AUC(0-t): 56.4 ng·h/mL
  Cmax: 12.8 ng/mL
  Tmax: 0.5 h
  half-life: 3.23 h
[1]; Crl:CD-1, 10 mg/kg PO
  AUC(0-t): 375 ng·h/mL
  Cmax: 48.1 ng/mL
  Tmax: 2 h
  half-life: 7.71 h
[2]
  nH (Hill coefficient), A1: 1.17
[2]; [6]
  IC50: 94 nM
  Ki: 55 nM
